Read-outs that look alike come from different tables or passages of the source.
Legend:
[1] = Metapristone metabolism in rat liver microsomes in the presence of specific CYP450 inhibitors; settings: inhibitor 10 µM, metapristone 9 µM, male or female rat liver microsomes, 120 min
[2] = cited from earlier work
[3] = set-up: method as in PMID 22210121; settings: cited from earlier work

Row | Structure (SMILES) | effect of CYP inhibitor on metabolism rate of metapristone versus controls [1] | further results
1 | C=C[C@H]1C[N@@]2CC[C@H]1C[C@@H]2[C@@H](O)c1ccnc2ccc(OC)cc12 [quinidine] | No significant differences | –
2 | CCN(CC)CCCC(C)Nc1ccnc2cc(Cl)ccc12 (centres unmarked) [Chloroquine] | – | V d ([2]; literature example, no reference given): 15,000 L
3 | CC#C[C@]1(O)CC[C@H]2[C@@H]3CCC4=CC(=O)CCC4=C3[C@@H](c3ccc(N(C)C)cc3)C[C@@]21C [mifepristone] | – | plasma protein binding rate [3]: 90%
4 | CC(=O)N1CCN(c2ccc(OCC3COC(Cn4ccnc4)(c4ccc(Cl)cc4Cl)O3)cc2)CC1 (centres unmarked) [ketoconazole] | significantly prevented metapristone from degradation | –
5 | O=c1cc(-c2ccccc2)oc2c1ccc1ccccc12 [α-naphthoflavone] | significantly prevented metapristone from degradation | –
6 | Nc1ccc(S(=O)(=O)Nc2ccnn2-c2ccccc2)cc1 [sulfaphenazole] | No significant differences | –
7 | CCCn1c(=O)c2[nH]c(C34CC5CC(CC3C5)C4)nc2n(CCC)c1=O [Rolofylline] | – | V d [2]: 239 L
8 | CC[C@H]1OC(=O)[C@@](C)(F)C(=O)[C@H](C)[C@@H](O[C@@H]2O[C@H](C)C[C@H](N(C)C)[C@H]2O)[C@](C)(OC)C[C@@H](C)C(=O)[C@H](C)[C@H]2N(CCCCn3cc(-c4cccc(N)c4)nn3)C(=O)O[C@]12C [Solithromycin] | – | V d [2]: > 500 L

— PMC5719405, “Sex-related pharmacokinetic differences and mechanisms of metapristone (RU486 metabolite)” (Scientific Reports, 2017)
